In patent publication US11440913B2, “Aminoimidazopyridazines as kinase inhibitors” (BRISTOL-MYERS SQUIBB COMPANY, priority 2017, dated 2022):
Structures can show the parent of a compound that is named as a salt. Where two headings read alike, the source gives them in different places.

Key:
[1] = target: His-GST-TVMV-hRIPK1(1-324) (Homo sapiens (Human), UniProt Q13546); experiment: RIPK1 HTRF Binding Assay
Protocol: A solution was prepared containing 0.2 nM Anti GST-Tb (Cisbio, 61GSTTLB), 90.6 nM probe and 1 nM His-GST-TVMV-hRIPK1(1-324) in FRET Buffer (20 mM HEPES, 10 mM MgCl2, 0.015% Brij-35, 4 mM DTT, 0.05 mg/mL BSA). Using Formulatrix Tempest, the detection antibody/enzyme/probe solution ([…]) was dispensed into wells of a 1536 plate (Black Low Binding Polystyrene 1536 Plate (Corning, 3724)) containing 10 nL of compounds of interest at appropriate concentration in DMSO. The plate was incubated at rt for 1 h. FRET was measured using the EnVision plate reader (Excitation: 340 nm, Emission: 520 nm/[…]). Total signal (0% inhibition) was calculated from wells containing 10 nL DMSO only.
The coding region of human RIPK1(1-324) flanked by NdeI site at 5′ end and stop codon TGA and XhoI site at 3′ end was codon optimized and gene synthesized at GenScript USA Inc. (Piscataway, N.J.) and subcloned into a modified pFastBacl vector (Invitrogen, Carlsbad, Calif.) with N-terminal His-GST-TVMV tag, to generate His-GST-TVMV-hRIPK1(1-324)-pFB. The fidelity of the synthetic fragment was confirmed by sequencing.

[2] = system: MLKL phosphorylation in HT29-L23 human colorectal adenocarcinoma cells; experiment: MLKL Phosphorylation High-Content Assay; assay type: cell-based; details: 6 h, necroptosis induced with TNFα, SMAC mimetic and Z-VAD, read-out: pMLKL (IC50)
Protocol: MLKL Phosphorylation High-Content Assay
HT29-L23 human colorectal adenocarcinoma cells were maintained in RPMI 1640 medium containing 10% heat-inactivated FBS, 1% Pennicilin-Streptomycin and 10 mM HEPES. Cells were seeded at 2,000 cells/well in 384 w tissue culture-treated microplates (Greiner #781090-3B) and incubated at 37° C. (5% CO2/95% O2) for two days. On the day of assay, the cells were treated with test compounds at final concentrations of 6.25 to 0.106 μM for 30 min at 37° C. (5% CO2/95% O2). Necroptopsis was induced using a mixture of human TNFα (35 ng/mL) (Peprotech #300-01A), SMAC mimetic (from US 2015/0322111 A1) (700 nM) and Z-VAD (140 nM) (BD pharmingen #51-6936). Following six hours incubation at 37° C. (5% CO2/95% O2), the cells were fixed with 4% formaldedye (ACROS 11969-0010) for 15 min at room temperature and then permeabilized with phoshpate buffered saline (PBS) containing 0.2% Triton-X-100 for 10 min. MLKL phosporylation was detected using anti-MLKL (phospho S358) antibody (Abcam # ab187091) (1:1000 dilution in Blocking Buffer [PBS supplemented with 0.1% BSA]) with overnight incubation at 4° C. After washing three times in PBS, goat anti-rabbit Alexa-488 (1:1000 dilution) (Life Technologies, A11008) and Hoechst 33342 (Life Technologies, H3570) (1:2000 dilution) in Blocking Buffer were added for 1 h at room temperature. Following another three cycles of washes in PBS, the microplates were sealed, and cellular images were acquired in the Cellomics ArrayScan VTI high-content imager equipped with an X1 camera. Fluorescent images were taken using a 10× objective and the 386-23 BGRFRN_BGRFRN and 485-20 BGRFRN_BGRFRN filter sets, for nuclei and MLKL phosphorylation, respectively. The image sets were analyzed using the Compartmental Analysis Bioapplication software (Cellomics). The level of MLKL phosphorylation was quantified as MEAN_CircRingAvgIntenRatio. […] The IC50 value was defined as the concentration of compound that produces 50% of the maximal inhibition. The data were fitted using the 4-parameter logistic equation to calculate the IC50 and Ymax values.

[3] = HTRF binding, 1 h at rt, read-out: RIPK1 (IC50)

His-GST-TVMV-hRIPK1(1-324), sequence (Q13546 1-324): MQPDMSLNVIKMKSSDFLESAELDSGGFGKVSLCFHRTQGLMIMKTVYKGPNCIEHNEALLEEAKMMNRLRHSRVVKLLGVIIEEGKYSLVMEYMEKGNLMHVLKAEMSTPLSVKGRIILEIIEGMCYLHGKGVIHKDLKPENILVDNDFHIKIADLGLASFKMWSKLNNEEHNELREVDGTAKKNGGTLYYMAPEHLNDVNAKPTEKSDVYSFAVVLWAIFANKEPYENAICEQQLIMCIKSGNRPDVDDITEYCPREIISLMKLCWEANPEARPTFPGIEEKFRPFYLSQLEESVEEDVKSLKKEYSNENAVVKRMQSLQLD

Row | Compound | IC50 ([2]; Homo sapiens) | also measured
1 | COc1nc(C)c(-c2ccc3nc(NC(C)=O)cn3n2)cc1C(=O)NCc1cc(F)cc(F)c1OCC1CCC1 [Example 294, N-{[2-(cyclobutylmethoxy)-3,5-difluorophenyl]methyl}-5-{2-acetamidoimidazo[1,2-b]pyridazin-6-yl}-2-methoxy-6-methylpyridine-3-carboxamide] | 3 nM | IC50 [1, 3]: 10 nM
2 | [2H]C([2H])([2H])Oc1nc(C)c(-c2ccc3nc(NC(C)=O)cn3n2)cc1C(=O)NC([2H])([2H])c1cc(OC(F)(F)F)ccc1F [Example 175, 5-{2-acetamidoimidazo[1,2-b]pyridazin-6-yl}-N-{[2-fluoro-5-(trifluoromethoxy)phenyl](deutero)methyl}-2-(deutero)methoxy-6-methylpyridine-3-carboxamide] | 16 nM | IC50 [1, 3]: 4 nM
3 | CC(=O)Nc1cn2nc(-c3cnc(C)c(C(=O)NCc4cccc(OCC(F)(F)F)c4)c3)ccc2n1 [Example 194, 5-{2-acetamidoimidazo[1,2-b]pyridazin-6-yl}-2-methyl-N-{[3-(2,2,2-trifluoroethoxy)phenyl]methyl}pyridine-3-carboxamide] | 141 nM | IC50 [1, 3]: 100 nM
4 | COc1ncc(-c2ccc3nc(NC(C)=O)cn3n2)cc1C(=O)N[C@H](C)c1ccccc1C(F)(F)F [Example 104, 5-{2-acetamidoimidazo[1,2-b]pyridazin-6-yl}-2-methoxy-N-[(1R)-1-[2-(trifluoromethyl)phenyl]ethyl]pyridine-3-carboxamide] | 73 nM | IC50 [1, 3]: 36 nM
5 | CC(=O)Nc1cn2nc(-c3cnc(C)c(C(=O)NCc4cc(F)cc(F)c4OCC4CCC4)c3)ccc2n1 [Example 210, N-{[2-(cyclobutylmethoxy)-3,5-difluorophenyl]methyl}-5-{2-acetamidoimidazo[1,2-b]pyridazin-6-yl}-2-methylpyridine-3-carboxamide, TFA] | – | IC50 [1, 3]: 3 nM; IC50 [2]: 5 nM
6 | Cc1ncc(-c2ccc3nc(NC(=O)CN4CCOCC4)cn3n2)cc1C(=O)N[C@H](C)c1cc(OC(F)(F)F)ccc1F [Example 337, N-[(1R)-1-[2-fluoro-5-(trifluoromethoxy)-phenyl]ethyl]-2-methyl-5-{2-[2-(morpholin-4-yl)acetamido]imidazo[1,2-b]pyridazin-6-yl}pyridine-3-carboxamide] | 11 nM | –
7 | Cc1ncc(-c2ccc3nc(NC(=O)CN4CCOCC4)cn3n2)cc1C(=O)NCC[C@@H](O)c1ccc(Cl)cc1 [Example 345, N-[(3R)-3-(4-chlorophenyl)-3-hydroxypropyl]-2-methyl-5-{2-[2-(morpholin-4-yl)acetamido]imidazo[1,2-b]pyridazin-6-yl}pyridine-3-carboxamide] | 44 nM | –
8 | CC(=O)Nc1cn2nc(-c3c(F)ccc(C(=O)N[C@H](C)c4cc(C(F)(F)F)ccc4F)c3F)ccc2n1 [Example 423, 3-{2-acetamidoimidazo [1,2-b]pyridazin-6-yl}-2,4-difluoro-N-[(1R)-1-[2-fluoro-5-(trifluoromethyl)phenyl]ethyl] benzamide] | 109 nM | –
9 | CC(=O)Nc1cn2nc(-c3cc(C(=O)NCc4cc(OC(F)(F)F)ccc4F)ccc3C)ccc2n1 [Example 433, 3-{2-acetamidoimidazo [1,2-b]pyridazin-6-yl}-N-{[2-fluoro-5-(trifluoromethoxy)phenyl]methyl}-4-methylbenzamide] | 34 nM | –
10 | Cc1ncc(-c2ccc3nc(NC(=O)CN4CCOCC4)cn3n2)cc1C(=O)NCC[C@H](O)c1ccc(Cl)cc1 [Example 346, N-[(3S)-3-(4-chlorophenyl)-3-hydroxypropyl]-2-methyl-5-{2-[2-(morpholin-4-yl)acetamido]imidazo[1,2-b]pyridazin-6-yl}pyridine-3-carboxamide] | 82 nM | –
11 | COc1ncc(-c2ccc3nc(NC(C)=O)cn3n2)cc1C(=O)NCc1cc(F)ccc1C(=O)N1CCC(F)(F)C1 [Example 323, N-{[2-(3,3-difluoropyrrolidine-1-carbonyl)-5-fluorophenyl]methyl}-5-{2-acetamidoimidazo[1,2-b]pyridazin-6-yl}-2-methoxypyridine-3-carboxamide] | 9 nM | –
12 | COc1ccc(-c2ccc3nc(NC(C)=O)cn3n2)c(F)c1C(=O)NCC[C@@H](O)c1ccc(Cl)cc1 [Example 374, N-[(3R)-3-(4-chlorophenyl)-3-hydroxypropyl]-3-{2-acetamidoimidazo [1,2-b]pyridazin-6-yl}-2-fluoro-6-methoxybenzamide] | 19 nM | –
13 | CC(=O)Nc1cn2nc(-c3cncc(NS(=O)(=O)c4ccc(F)cc4)c3)ccc2n1 [Example 11 in US2009/0163489, reference compound] | – | IC50 ([1]; comparison compound of US2009/0163489, read-out: IC50 in the RIPK1 assay): 11000 nM
14 | COc1ncc(-c2ccc3nc(NC(C)=O)cn3n2)cc1C(=O)NCc1cc(F)cc(F)c1C(=O)N1CCC(F)(F)C1 [Example 324, N-{[2-(3,3-difluoropyrrolidine-1-carbonyl)-3,5-difluorophenyl]methyl}-5-{2-acetamidoimidazo[1,2-b]pyridazin-6-yl}-2-methoxypyridine-3-carboxamide] | 3 nM | –
15 | COc1ncc(-c2ccc3nc(NC(C)=O)cn3n2)cc1C(=O)NCc1ncccc1OCC(F)(F)F [Example 101, 5-{2-acetamidoimidazo[1,2-b]pyridazin-6-yl}-2-methoxy-N-{[3-(2,2,2-trifluoroethoxy)pyridin-2-yl]methyl}pyridine-3-carboxamide, 2 TFA] | – | IC50 [2]: 248 nM
16 | CC(=O)Nc1cn2nc(-c3c(F)c(F)cc(C(=O)NCc4cc(C(F)(F)F)ccc4F)c3F)ccc2n1 [Example 369, 3-{2-acetamidoimidazo [1,2-b]pyridazin-6-yl}-2,4,5-trifluoro-N-{[2-fluoro-5-(trifluoromethyl)phenyl]methyl} benzamide] | 61 nM | –
17 | COc1ccc(-c2ccc3nc(NC(C)=O)cn3n2)cc1C(=O)NCc1cc(OC(F)(F)F)ccc1F [Example 418, 5-{2-acetamidoimidazo [1,2-b]pyridazin-6-yl}-N-{[2-fluoro-5-(trifluoromethoxy)phenyl]methyl}-2-methoxybenzamide] | 26 nM | –
18 | CC(=O)Nc1cn2nc(-c3cc(C(=O)NCc4cc(OC(F)(F)F)ccc4F)c(Cl)cc3C)ccc2n1 [Example 393, 2-chloro-5-{2-acetamidoimidazo [1,2-b]pyridazin-6-yl}-N-{[2-fluoro-5-(trifluoromethoxy)phenyl]methyl}-4-methylbenzamide] | 8 nM | –
19 | CC(=O)Nc1cn2nc(-c3ccc(C)c(C(=O)Nc4cnn(Cc5ccccc5)c4)c3)ccc2n1 [Example 399, N-(1-benzyl-1H-pyrazol-4-yl)-5-{2-acetamidoimidazo [1,2-b]pyridazin-6-yl}-2-methylbenzamide] | 5 nM | –
20 | CC(=O)Nc1cn2nc(-c3cc(C(=O)NCc4cccnc4OCC4CCC4)c(C)nc3C)ccc2n1 [Example 86, N-{[2-(cyclobutylmethoxy)pyridin-3-yl]methyl}-5-{2-acetamidoimidazo[1,2-b]pyridazin-6-yl}-2,6-dimethylpyridine-3-carboxamide] | – | IC50 [2]: 27 nM
21 | CC(=O)Nc1cn2nc(-c3cc(C(=O)NCC[C@@H](O)c4ccc(Cl)cc4)c(C)cc3F)ccc2n1 [Example 415, N-[(3R)-3-(4-chlorophenyl)-3-hydroxypropyl]-5-{2-acetamidoimidazo[1,2-b]pyridazin-6-yl}-4-fluoro-2-methylbenzamide] | 4 nM | –
22 | CC(=O)Nc1cn2nc(-c3cc(F)c(C)c(C(=O)NCc4cc(-c5cnn(C)c5)ccc4F)c3)ccc2n1 [Example 358, 5-(2-acetamidoimidazo[1,2-b]pyridazin-6-yl)-3-fluoro-N-(2-fluoro-5-(1-methyl-1H-pyrazol-4-yl)benzyl)-2-methylbenzamide] | 49 nM | –
